Laboratory results: US10662203B2, “Pyrido[2,3-b]indole compounds for the treatment and prophylaxis of bacterial infection” (Hoffmann-La Roche Inc., priority 2017, dated 2020)
Converted amounts (≈) assume the structure as drawn. Like-named read-outs stand apart in the source and are kept apart here.

Key:
[1] = Single dose PK study (SDPK) in female CD-1 mouse; type: in vivo; settings: MOUSE IV; for clearance: female, CD-1, plasma, read-out: CL total
Method: Single Dose PK Study (SDPK) in Female CD-1 Mouse: The single dose PK in female CD-1 mouse was performed to assess compound's pharmacokinetic properties. One group of animals were dosed via bolus intravenous (IV) of the respective compound. Blood samples (approximately 30 μL) were collected via saphenous vein at 5 mins, 15 min, 30 min, 1 hr, 2 hr, 4 hr and 7 hr. For last time point (24 hr), samples were collected via cardiac puncture while the mouse was under anesthesia. Blood samples were placed into tubes containing EDTA-K2 anticoagulant (2 μL of 0.5M per tube) and centrifuged at 3000 rpm for 10 minutes at 4° C. within half an hour to separate plasma from the samples. Following centrifugation, plasma samples were stored in polypropylene tubes, quick frozen over dry ice and kept at −70±10° C. until LC/MS/MS analysis. The pharmacokinetic parameters were calculated using non-compartmental module of WinNonlin® Professional 6.4.

[2] = system: K. pneumoniae (ATCC10031); experiment: 50% growth inhibitory concentration (IC50) determination assay; type: cell-based; settings: Klebsiella pneumoniae, Iso-Sensitest broth, 0.098 = detection limit
Outline: (§1)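 Compounds were two-fold serially diluted (50 to 0.097 μM final) in Iso-Sensitest broth, with ~5×10^5 CFU/mL bacteria. Plates were incubated at 35±2° C and growth followed by OD600 every 20 min over 16 h to derive IC50.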

A. baumannii (ATCC17978) = experiment: as above; type: cell-based; settings: Acinetobacter baumannii, ATCC17978, A. baumannii ATCC17978; Iso-Sensitest broth; 0.098 = detection limit
Outline: as §1

S. aureus (ATCC29213) = experiment: as above; type: cell-based; settings: Staphylococcus aureus, Iso-Sensitest broth, 0.098 = detection limit
Outline: as §1

[3] = Cytotoxicity assay (HepG2, CellTiter-Blue cell viability); type: cell-based; settings: human; HepG2 cells, 3 days treatment; "*": the detection limit; read-out: CC50
Method: The cytotoxicity of compounds of present invention was assessed by HepG2 assay. HepG2 cells (ATCC HB-8065™) were seeded into 96-well plates (1.2×10^4 cells per well) and treated with compounds for 3 days, cell viability was measured at day 3 post compound treatment using the CellTiter-Blue® Cell Viability Assay (Promega, Cat. No. G8082). 20 μL of Cell titer blue buffer were added to each well of the cells, which were incubated for 3 hours at 37° C., and the fluorescence value was measured by a plate reader (Molecular Device SpectraMax M2). The CC50 value of each compound is plotted with GraphPad Prism using four parameter logistic equation.

[4] = Lyophilisation solubility assay (LYSA); type: physicochemical; settings: phosphate buffer, pH 6.5, aqueous buffer, thermodynamic from solid, 0.05 M phosphate buffer, HPLC-UV
Outline: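 Read-out is HPLC-UV of the filtered solution and its 1/10 dilution. The dried residue of a 10 mM DMSO stock was redissolved in 0.05 M pH 6.5 phosphate buffer, then stirred 1 h, shaken 2 h and held overnight. Run in duplicate.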

| SMILES | AUC total ([1]; 0.7 mg/kg-Solution) [ng·h/mL] | clearance ([1]; 0.7 mg/kg-Solution) [mL/min/kg] | IC50 [2] [µM] | IC50 (A. baumannii (ATCC17978)) [µM] | IC50 (S. aureus (ATCC29213)) [µM] | solubility thermodynamic [4] [µg/mL] | AUC total ([1]; 1.0 mg/kg-Solution) [ng·h/mL] | clearance ([1]; 1.0 mg/kg-Solution) [mL/min/kg] | CC50 at 3 days [3] [nM] |
| --- | --- | --- | --- | --- | --- | --- | --- | --- | --- |
| CCCN(C)c1c(-c2cnc3c(c2)c(=O)c(C(=O)O)cn3CC)cnc2[nH]c3c(NC)cc(F)c(F)c3c12 [Example 1.07] | 260.7 | 45.8 |  |  |  |  |  |  |  |
| CNc1cc(F)c(F)c2c1[nH]c1ncc(-c3cnc4c(c3)c(=O)c(C(=O)O)cn4C)c(N3CCC(CN(C)C)C3)c12 (stereo not drawn) [Example 1.135] |  |  | < 0.098 | 0.153 | < 0.098 | 266 (≈ 474 µM) |  |  | 29300 |
| CNc1cc(F)c(F)c2c1[nH]c1ncc(-c3cnc4c(c3)c(=O)c(C(=O)O)cn4C)c(N3CCC(N(C)C)CC3)c12 [Example 1.182] |  |  | < 0.098 | 0.423 | 0.177 | 147 (≈ 262 µM) |  |  | 91700 |
| CCn1cc(C(=O)O)c(=O)c2cc(-c3cnc4[nH]c5c(NC)cc(F)c(F)c5c4c3N3CC4CC3CO4)cnc21 (stereo not drawn) [Example 1.05] |  |  | < 0.098 | 0.725 | < 0.098 |  | 162.7 | 100 |  |
| CNc1cc(F)cc2c1[nH]c1ncc(-c3cnc4c(c3)c(=O)c(C(=O)O)cn4C)c(N3CCN(C)CC3)c12 [Example 1.184] |  |  | < 0.098 | 0.148 | < 0.098 | 52 (≈ 101 µM) |  |  | 28700 |
| CNc1cc(F)c(F)c2c1[nH]c1ncc(-c3cnc4c(c3)c(=O)c(C(=O)O)cn4C)c(N3CC[C@@H](CN4CCCC4)C3)c12 [Example 1.173] |  |  | < 0.098 | 0.216 | < 0.098 | 106 (≈ 180 µM) |  |  | 44900 |
| CNc1cc(F)c(F)c2c1[nH]c1ncc(-c3cnc4c(c3)c(=O)c(C(=O)O)cn4C)c(N3CCOC(CN(C)C)C3)c12 (stereo not drawn) [Example 1.61] |  |  | < 0.098 | 0.817 | 0.139 | 600 (≈ 1040 µM) |  |  | > 100000 |
| CNc1cc(F)c(F)c2c1[nH]c1ncc(-c3cnc4c(c3)c(=O)c(C(=O)O)cn4CCN(C)C)c(N(C)C)c12 [Example 1.22] |  |  | < 0.098 | 0.118 | < 0.098 |  | 179.9 | 91.3 |  |
| CNc1cc(F)cc2c1[nH]c1ncc(-c3cnc4c(c3)c(=O)c(C(=O)O)cn4NC)c(N3CCOCC3)c12 [Example 1.52] |  |  | < 0.098 | 0.233 | < 0.098 |  | 305.8 | 57.4 |  |
| CNc1cc(F)cc2c1[nH]c1ncc(-c3cnc4c(c3)c(=O)c(C(=O)O)cn4N3CCOCC3)c(N3CCOCC3)c12 [Example 1.71] |  |  | < 0.098 | 0.923 | < 0.098 | 11 (≈ 19.2 µM) |  |  | > 100000 |
| CNc1cc(Cl)cc2c1[nH]c1ncc(-c3cnc4c(c3)c(=O)c(C(=O)O)cn4C)c(N3CCOC(CN(C)C)C3)c12 (stereo not drawn) [Example 1.138] |  |  | < 0.098 | 0.302 | < 0.098 | 91 (≈ 158 µM) |  |  | 47300 |
| [2H]C([2H])([2H])Nc1cc(F)c(F)c2c1[nH]c1ncc(-c3cnc4c(c3)c(=O)c(C(=O)O)cn4C)c(N3CCC[C@H]3CN(C)C)c12 [Example 1.161] |  |  | < 0.098 | 0.202 | 0.155 | > 830 |  |  | > 100000 |
| CNc1cc(F)c(F)c2c1[nH]c1ncc(-c3cnc4c(c3)c(=O)c(C(=O)O)cn4NC)c(N3CCOC(CN(C)C)C3)c12 (stereo not drawn) [Example 1.181] |  |  | < 0.098 | 0.916 | 0.444 | 70 (≈ 118 µM) |  |  | > 100000 |
| CNc1cc(F)cc2c1[nH]c1ncc(-c3cnc4c(c3)c(=O)c(C(=O)O)cn4C)c(N3CCC(N(C)C)C3)c12 (stereo not drawn) [Example 1.75] |  |  | < 0.098 | 0.108 | 0.108 | 152 (≈ 287 µM) |  |  | 68500 |
| CCN(CC)CC1CN(c2c(-c3cnc4c(c3)c(=O)c(C(=O)O)cn4C)cnc3[nH]c4c(NC)cc(F)c(F)c4c23)CCO1 (stereo not drawn) [Example 1.149] |  |  | < 0.098 | 0.362 | < 0.098 | 530 (≈ 875 µM) |  |  | 66600 |
| CNc1cc(F)c(F)c2c1[nH]c1ncc(-c3cnc4c(c3)c(=O)c(C(=O)O)cn4C)c(N3CCCC3CN(C)C)c12 (stereo not drawn) [Example 1.12] |  |  | < 0.098 | 0.294 | 0.11 | 321 (≈ 572 µM) |  |  | 39200 |
| CNc1c(F)c(F)cc2c1[nH]c1ncc(-c3cnc4c(c3)c(=O)c(C(=O)O)cn4C)c(N3CCOC(CN(C)C)C3)c12 (stereo not drawn) [Example 1.78] |  |  | < 0.098 | 0.326 | 0.343 | 530 (≈ 918 µM) |  |  | 42500 |

The next lines start with results.

| AUC total ([1]; 0.7 mg/kg-Solution) [ng·h/mL] | clearance ([1]; 0.7 mg/kg-Solution) [mL/min/kg] | IC50 [2] [µM] | IC50 (A. baumannii (ATCC17978)) [µM] | IC50 (S. aureus (ATCC29213)) [µM] | solubility thermodynamic [4] [µg/mL] | AUC total ([1]; 1.0 mg/kg-Solution) [ng·h/mL] | clearance ([1]; 1.0 mg/kg-Solution) [mL/min/kg] | SMILES | CC50 at 3 days [3] [nM] |
| --- | --- | --- | --- | --- | --- | --- | --- | --- | --- |
|  |  | < 0.098 | 0.176 | < 0.098 | 85 (≈ 151 µM) |  |  | CNc1cc(F)c(F)c2c1[nH]c1ncc(-c3cnc4c(c3)c(=O)c(C(=O)O)cn4C)c(N3CCC[C@H](N(C)C)C3)c12 [Example 3.06B] | 40200 |
|  |  | < 0.098 | 0.096 | < 0.098 | 16 (≈ 27.8 µM) |  |  | CNc1cc(F)c(F)c2c1[nH]c1ncc(-c3cnc4c(c3)c(=O)c(C(=O)O)cn4NC)c(N3CC4[C@H](CCN4C)C3)c12 (stereo partly drawn) [Example 1.193] | > 100000 |
|  |  | < 0.098 | 0.203 | 0.101 | 73 (≈ 127 µM) | 188.3 | 85.7 | CNc1cc(F)c(F)c2c1[nH]c1ncc(-c3cnc4c(c3)c(=O)c(C(=O)O)cn4C)c(N3CC(N(C)C)C4(CC4)C3)c12 (stereo not drawn) [Example 1.207] |  |
|  |  | < 0.098 | 0.197 | 0.195 | 181 (≈ 314 µM) |  |  | CNc1cc(F)c(F)c2c1[nH]c1ncc(-c3cnc4c(c3)c(=O)c(C(=O)O)cn4NC)c(N3CCCC(N(C)C)C3)c12 (stereo not drawn) [Example 1.191] | 29100 |
|  |  | < 0.098 | 0.164 | < 0.098 | 23 (≈ 42 µM) |  |  | CNc1cc(F)c(F)c2c1[nH]c1ncc(-c3cnc4c(c3)c(=O)c(C(=O)O)cn4C)c(N3CC[C@H](N(C)C)C3)c12 [Example 1.254] | 36100 |
|  |  | < 0.098 | 0.095 | < 0.098 |  | 196.3 | 84.3 | CNc1cc(F)c(F)c2c1[nH]c1ncc(-c3cnc4c(c3)c(=O)c(C(=O)O)cn4C)c(N3CC4[C@@H](C3)OCCN4C)c12 (stereo partly drawn) [Example 1.241] |  |
|  |  | < 0.098 | 0.16 | < 0.098 |  | 167.5 | 98.1 | CNc1cc(F)c(F)c2c1[nH]c1ncc(-c3cnc4c(c3)c(=O)c(C(=O)O)cn4C)c(N3CCC4(CN(C)CCO4)C3)c12 (stereo not drawn) [Example 1.202] |  |
|  |  | < 0.098 | 0.065 | < 0.098 | 24 (≈ 40.6 µM) |  |  | CNc1cc(F)c(Cl)c2c1[nH]c1ncc(-c3cnc4c(c3)c(=O)c(C(=O)O)cn4NC)c(N3CC[C@H]4CN(C)CC43)c12 (stereo partly drawn) [Example 1.268] | 33400 |
|  |  | < 0.098 | 0.297 | < 0.098 | 12 (≈ 20.9 µM) |  |  | CNc1cc(F)c(F)c2c1[nH]c1ncc(-c3cnc4c(c3)c(=O)c(C(=O)O)cn4C)c(N3CCC4(CCN(C)C4)C3)c12 (stereo not drawn) [Example 1.229] | 53100 |
|  |  | < 0.098 | 0.444 | < 0.098 | 455 (≈ 813 µM) |  |  | CNc1cc(F)cc2c1[nH]c1ncc(-c3cnc4c(c3)c(=O)c(C(=O)O)cn4C)c(N3CCO[C@H](CN(C)C)C3)c12 [Example 3.02B] | > 100000 |
|  |  | < 0.098 | 0.187 | 0.12 | 190 (≈ 330 µM) |  |  | CNc1cc(F)c(F)c2c1[nH]c1ncc(-c3cnc4c(c3)c(=O)c(C(=O)O)cn4NC)c(N3CCC[C@H]3CN(C)C)c12 [Example 1.217] | 27800 |
